According to the NIST ThermoML archive (doi:10.1021/je8001305):

Assay: xn = mol fraction of the nth substance listed
Conditions: Liquid, Vibrating tube method

CC(C)O [propan-2-ol] + O
Conditions | mass density [kg/m3]
300.08 K, 7 kPa, x1 = 0.2483 | 895.51
300.08 K, 7.3 kPa, x1 = 0.7258 | 805.5
300.08 K, 88.2 kPa, x1 = 0.7258 | 805.57
300.08 K, 146.2 kPa, x1 = 0.2483 | 895.5
300.08 K, 303 kPa, x1 = 0.7258 | 805.78
300.08 K, 381.3 kPa, x1 = 0.2483 | 895.67
300.08 K, 565.1 kPa, x1 = 0.7258 | 806
300.08 K, 764.9 kPa, x1 = 0.2483 | 895.89
300.08 K, 1101.1 kPa, x1 = 0.2483 | 896.11
300.08 K, 1126.2 kPa, x1 = 0.7258 | 806.42
300.08 K, 1556.8 kPa, x1 = 0.2483 | 896.32
300.08 K, 1702.5 kPa, x1 = 0.7258 | 806.92
300.08 K, 1921.9 kPa, x1 = 0.2483 | 896.56
300.08 K, 2181.5 kPa, x1 = 0.2483 | 896.86
300.08 K, 2239.8 kPa, x1 = 0.7258 | 807.33
300.08 K, 2610.1 kPa, x1 = 0.2483 | 897.09
300.08 K, 2722.7 kPa, x1 = 0.7258 | 807.73
300.08 K, 3080.5 kPa, x1 = 0.2483 | 897.32
300.08 K, 3196 kPa, x1 = 0.7258 | 808.11
300.08 K, 3522.3 kPa, x1 = 0.2483 | 897.58
300.08 K, 3715.6 kPa, x1 = 0.7258 | 808.53
300.08 K, 4082.6 kPa, x1 = 0.2483 | 897.87
300.08 K, 4231.5 kPa, x1 = 0.7258 | 808.93
300.08 K, 4587.1 kPa, x1 = 0.7258 | 809.31
300.08 K, 4663.3 kPa, x1 = 0.2483 | 898.17
300.08 K, 5151.3 kPa, x1 = 0.2483 | 898.42
300.08 K, 5314.6 kPa, x1 = 0.7258 | 809.85
300.08 K, 5562.5 kPa, x1 = 0.2483 | 898.65
300.08 K, 5793.2 kPa, x1 = 0.7258 | 810.24
300.08 K, 5980.5 kPa, x1 = 0.2483 | 898.85
300.08 K, 6301.2 kPa, x1 = 0.7258 | 810.63
300.08 K, 6414.3 kPa, x1 = 0.2483 | 899.11
300.08 K, 6754.8 kPa, x1 = 0.2483 | 899.33
300.08 K, 6783.9 kPa, x1 = 0.7258 | 811.02
300.08 K, 7246.8 kPa, x1 = 0.2483 | 899.56
300.08 K, 7297.6 kPa, x1 = 0.7258 | 811.43
300.08 K, 7636.7 kPa, x1 = 0.2483 | 899.78
300.08 K, 7804.4 kPa, x1 = 0.7258 | 811.81
300.08 K, 8131.6 kPa, x1 = 0.2483 | 900.04
300.08 K, 8342.2 kPa, x1 = 0.7258 | 812.23
300.08 K, 8662.8 kPa, x1 = 0.2483 | 900.28
300.08 K, 8818 kPa, x1 = 0.7258 | 812.6
300.08 K, 9087.3 kPa, x1 = 0.2483 | 900.54
300.08 K, 9330.1 kPa, x1 = 0.7258 | 813
300.08 K, 9562.3 kPa, x1 = 0.2483 | 900.79
300.08 K, 9918.9 kPa, x1 = 0.7258 | 813.45
300.1 K, 7.2 kPa, x1 = 0.4939 | 837.98
300.1 K, 233.4 kPa, x1 = 0.4939 | 838.18
300.1 K, 503 kPa, x1 = 0.4939 | 838.33
300.1 K, 946.6 kPa, x1 = 0.4939 | 838.71
300.1 K, 1545.3 kPa, x1 = 0.4939 | 839.06
300.1 K, 1902.2 kPa, x1 = 0.4939 | 839.36
300.1 K, 2303.5 kPa, x1 = 0.4939 | 839.65
300.1 K, 2724.6 kPa, x1 = 0.4939 | 839.96
300.1 K, 3136.5 kPa, x1 = 0.4939 | 840.26
300.1 K, 3567.9 kPa, x1 = 0.4939 | 840.56
300.1 K, 3995.8 kPa, x1 = 0.4939 | 840.87
300.1 K, 4436.2 kPa, x1 = 0.4939 | 841.18
300.1 K, 4835.5 kPa, x1 = 0.4939 | 841.48
300.1 K, 5262 kPa, x1 = 0.4939 | 841.77
300.1 K, 5699.8 kPa, x1 = 0.4939 | 842.07
300.1 K, 6161 kPa, x1 = 0.4939 | 842.39
300.1 K, 6588.4 kPa, x1 = 0.4939 | 842.68
300.1 K, 7053 kPa, x1 = 0.4939 | 843
300.1 K, 7437.9 kPa, x1 = 0.4939 | 843.28
300.1 K, 7862 kPa, x1 = 0.4939 | 843.57
300.1 K, 8248.5 kPa, x1 = 0.4939 | 843.86
300.1 K, 8704.4 kPa, x1 = 0.4939 | 844.15
300.1 K, 9260.6 kPa, x1 = 0.4939 | 844.49
300.1 K, 9966.4 kPa, x1 = 0.4939 | 845.04
325.09 K, 28.6 kPa, x1 = 0.4939 | 814.94
325.09 K, 65.4 kPa, x1 = 0.4939 | 814.96
325.09 K, 303 kPa, x1 = 0.4939 | 815.2
325.09 K, 645.3 kPa, x1 = 0.4939 | 815.47
325.09 K, 1004.8 kPa, x1 = 0.4939 | 815.8
325.09 K, 1391.9 kPa, x1 = 0.4939 | 816.13
325.09 K, 1788.1 kPa, x1 = 0.4939 | 816.48
325.09 K, 2242 kPa, x1 = 0.4939 | 816.83
325.09 K, 2881.1 kPa, x1 = 0.4939 | 817.33
325.09 K, 3904.6 kPa, x1 = 0.4939 | 818.19
325.09 K, 4242.1 kPa, x1 = 0.4939 | 818.51
325.09 K, 4784.4 kPa, x1 = 0.4939 | 818.94
325.09 K, 5116.8 kPa, x1 = 0.4939 | 819.26
325.09 K, 5507.3 kPa, x1 = 0.4939 | 819.61
325.09 K, 5912.2 kPa, x1 = 0.4939 | 819.93
325.09 K, 6322.1 kPa, x1 = 0.4939 | 820.28
325.09 K, 6773 kPa, x1 = 0.4939 | 820.6
325.09 K, 7214.5 kPa, x1 = 0.4939 | 820.97
325.09 K, 7613.3 kPa, x1 = 0.4939 | 821.31
325.09 K, 8080.5 kPa, x1 = 0.4939 | 821.7
325.09 K, 8603.1 kPa, x1 = 0.4939 | 822.11
325.09 K, 9197.3 kPa, x1 = 0.4939 | 822.51
325.09 K, 9561.4 kPa, x1 = 0.4939 | 822.86
325.1 K, 27.3 kPa, x1 = 0.2483 | 874.07
325.1 K, 72.6 kPa, x1 = 0.2483 | 874.13
325.1 K, 410.3 kPa, x1 = 0.2483 | 874.37
325.1 K, 962.1 kPa, x1 = 0.2483 | 874.71
325.1 K, 1343 kPa, x1 = 0.2483 | 875.01
325.1 K, 1859.5 kPa, x1 = 0.2483 | 875.37
325.1 K, 2332.6 kPa, x1 = 0.2483 | 875.6
325.1 K, 2826.4 kPa, x1 = 0.2483 | 875.91
325.1 K, 3319.4 kPa, x1 = 0.2483 | 876.24
325.1 K, 3776.3 kPa, x1 = 0.2483 | 876.52
325.1 K, 4236.7 kPa, x1 = 0.2483 | 876.83
